Structures can show the parent of a compound that is named as a salt.

As usually defined, the melting point is the temperature, or range, at which the solid turns liquid. As a reminder, the IC50 is the concentration needed to halve the response being measured. A lower IC50 goes with greater potency in that assay.

Data set [1] has as its target T1, α4β1 integrin (Jurkat cell adhesion to immobilized CS-1 derived peptide CLHPGEILDVPST) (Homo sapiens, UniProt P05556+P13612).
T1 construct: 100 μl of Jurkat cells (2.5×10^6 cells/ml) in DMEM plus BSA; endogenous in cells; host or cells: Jurkat T-cell line
Nature of the data set: Jurkat-CS-1 Assay. The format is cell-based. The note with it: Jurkat cells on CS-1 peptide coated plates. On the procedure: The CS-1 derived peptide, CLHPGEILDVPST, and the scrambled control peptide, CLHGPIELVSDPT, were synthesized on a Beckman 990 synthesizer using t-Boc methodology. The peptides were immobilized onto microtiter plates using the heterobifunctional crosslinker 3-(2-pyridyldithio)propionic acid N-hydroxysuccinimide ester (SPDP) as reported by Pierschbacher et al., Proc. Natl. Acad. USA, 80:1224-1227 (1983). Microtiter plates were coated with 20 μg/ml HSA for 2 hr. at room temperature, washed once with PBS and derivatized with 10 μg/ml SPDP for 1 hr. After washing, 100 μl of a 100 μg/ml cysteine containing peptide solution which had been recently dissolved was added to the wells and allowed to crosslink to the plates overnight at 4° C. Unbound peptide was removed from plates by washing with PBS. To block non-reacted sites, the plates are coated with 100 μl of a 2.5 mg/ml BSA solution in PBS for 1 hr. at 37° C. 100 μl of Jurkat cells (2.5×10^6 cells/ml) in DMEM plus BSA (2.5 mg/ml) was mixed with an appropriate concentration of the compound to be tested and the mixture was added to peptide coated dishes and incubated for 1 hr. at 37° C. Generally 100, 20, 5 and 1.25 μM concentrations of the compound were tested.
Following this incubation the plates were washed once with PBS and the attached cells were fixed with 3% paraformaldehyde in PBS and stained with 0.5% toluidine blue in 3.7% formaldehyde. The cells were stained overnight at room temperature and the optical density at 590 nm of toluidine blue stained cells was determined using a vertical pathway spectrophotometer to quantitate attachment (VMAX Kinetic Microplate Reader, Molecular Devices, Menlo Park, Calif.). This procedure is a modification of a previously published method (Cardarelli et al, J. Biol. Chem., 269:18668-18673 (1994) and Cardarelli et al, Proc. Natl. Acad. Sci. USA, 83:2647-2651 (1986)).

For data set [2], the target named is T2, α4β1 integrin (Jurkat T-cell adhesion to IL-1 stimulated endothelial cell monolayers) (Homo sapiens, UniProt P05556+P13612).
T2 construct: a T-cell line, Jurkat, known to express the α4β1 integrin; host or cells: Jurkat T-cell line
T2 sequence (P13612 34-1032): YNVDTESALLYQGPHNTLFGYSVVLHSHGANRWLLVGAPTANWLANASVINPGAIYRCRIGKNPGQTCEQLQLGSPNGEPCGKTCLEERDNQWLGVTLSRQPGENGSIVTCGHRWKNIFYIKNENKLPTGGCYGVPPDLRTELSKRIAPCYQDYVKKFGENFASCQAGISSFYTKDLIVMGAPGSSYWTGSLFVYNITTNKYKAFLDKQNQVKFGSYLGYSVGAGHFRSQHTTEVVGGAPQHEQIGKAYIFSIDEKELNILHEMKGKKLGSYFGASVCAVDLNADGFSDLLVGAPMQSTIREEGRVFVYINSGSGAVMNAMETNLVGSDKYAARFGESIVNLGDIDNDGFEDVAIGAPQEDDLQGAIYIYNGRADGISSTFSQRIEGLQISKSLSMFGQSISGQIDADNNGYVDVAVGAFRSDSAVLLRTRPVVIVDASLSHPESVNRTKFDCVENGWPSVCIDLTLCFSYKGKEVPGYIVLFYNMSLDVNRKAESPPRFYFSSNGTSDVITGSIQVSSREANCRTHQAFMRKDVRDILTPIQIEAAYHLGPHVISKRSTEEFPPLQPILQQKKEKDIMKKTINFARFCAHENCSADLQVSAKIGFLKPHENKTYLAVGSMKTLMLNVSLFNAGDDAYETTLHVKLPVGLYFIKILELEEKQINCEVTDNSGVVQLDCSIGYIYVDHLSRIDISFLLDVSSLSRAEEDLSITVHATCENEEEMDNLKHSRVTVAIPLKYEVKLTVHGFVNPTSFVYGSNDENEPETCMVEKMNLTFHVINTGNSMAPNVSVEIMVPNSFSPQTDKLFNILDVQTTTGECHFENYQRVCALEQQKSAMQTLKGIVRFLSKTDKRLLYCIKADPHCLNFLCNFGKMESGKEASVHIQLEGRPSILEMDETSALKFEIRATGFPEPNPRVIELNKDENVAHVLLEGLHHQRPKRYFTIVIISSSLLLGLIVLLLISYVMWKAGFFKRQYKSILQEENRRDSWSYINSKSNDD
T2 sequence (P05556 21-798): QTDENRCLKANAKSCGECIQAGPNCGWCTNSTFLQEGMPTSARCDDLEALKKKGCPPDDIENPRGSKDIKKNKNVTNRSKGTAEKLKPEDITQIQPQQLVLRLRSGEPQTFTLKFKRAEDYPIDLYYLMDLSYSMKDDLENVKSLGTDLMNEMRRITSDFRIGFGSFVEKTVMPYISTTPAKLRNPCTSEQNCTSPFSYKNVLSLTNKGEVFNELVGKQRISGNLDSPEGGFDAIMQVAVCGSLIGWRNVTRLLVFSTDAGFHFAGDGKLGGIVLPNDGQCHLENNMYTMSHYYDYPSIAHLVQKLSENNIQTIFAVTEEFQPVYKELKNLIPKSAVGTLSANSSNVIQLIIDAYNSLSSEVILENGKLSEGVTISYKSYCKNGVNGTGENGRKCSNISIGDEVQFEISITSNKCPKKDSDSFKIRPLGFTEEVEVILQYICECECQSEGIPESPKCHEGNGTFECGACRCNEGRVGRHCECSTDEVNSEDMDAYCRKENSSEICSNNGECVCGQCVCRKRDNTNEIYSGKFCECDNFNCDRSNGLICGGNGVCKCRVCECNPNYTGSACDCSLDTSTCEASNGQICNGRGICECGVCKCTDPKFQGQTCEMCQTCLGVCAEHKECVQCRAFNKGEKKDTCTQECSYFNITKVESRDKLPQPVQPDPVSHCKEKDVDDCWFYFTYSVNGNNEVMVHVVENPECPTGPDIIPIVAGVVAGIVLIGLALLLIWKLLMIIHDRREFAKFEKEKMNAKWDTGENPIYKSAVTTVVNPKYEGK
Nature of the data set: Jurkat-Endothelial Cell Adhesion Assay (Jurkat EC). The format is cell-based. The conditions noted are these: Jurkat cells on IL-1 stimulated HUVEC monolayers. On the procedure: The following assay established the activity of the present compounds in inhibiting β1-mediated cell adhesion in a representative in vitro system. This assay measures the adhesive interactions of a T-cell line, Jurkat, known to express the α4β1 integrin, to endothelial monolayers in the presence of test compounds. The test compounds were added in increasing concentrations to T-cells and then the T-cell compound mixture was added to IL-1 stimulated endothelial cell monolayers. The plates were incubated, washed and the percentage of attached cells was quantitated. […] Human umbilical vein endothelial cells were purchased from Clonetics (San Diego, Calif.) at passage number 2. The cells were grown on 0.5% porcine skin gelatin pre-coated flasks (Sigma, St. Louis Mo.) in EGM-UV media (Clonetics, San Diego, Calif.) supplemented with 10% fetal bovine serum. Cells are refed every 2-3 days reaching confluence by day 4 to 6. […] The endothelial cells are not used following passage 6. Am The T-cell line Jurkat was obtained from American Type Tissue Culture Collection (Rockville, Md.) and the cells were cultured in RPMI containing 10% fetal calf serum. The cells were washed twice in Hank's Balanced Salt Solution (HBSS) and resuspended in Dulbecco's […] Eagle's Media (DMEM) containing 2.5 mg/ml Human Serum Albumin (HSA). Jurkat cells (1×10^6 cells/ml) were stained with 10 ng/ml BCECF-AM z z (Molecular Probes, Eugene, Ore.)) in HBSS without phenol red. The cells were loaded with BCECF for 60 minutes in the dark at 37° C., washed 2 times, and resusupended in DMEM-HSA solution.
Confluent endothelial monolayers, grown in 96-well tissue culture plates, were stimulated for 4 hr. at 37° C. with 0.1 ng/ml (˜50 U/ml) recombinant IL-1 (Amgen, Thousand Oaks, Calif.). Following this incubation, the monolayers were washed twice with HBSS and 0.1 ml of DMEM-HSA solution was added. Jurkat cells (5×10^5 cells) were combined with the appropriate concentration of the test compound and 0.1 ml of the Jurkat cell-compound mixture was added to the endothelial cell monolayers. Generally, 100, 20, 5 and 1.25 μM compound concentrations were tested. […] The plates were placed on ice for 5 minutes to allow for Jurkat cell settling and the plates were incubated at 37° C. for 20 minutes. Following this incubation, the monolayers were washed twice with PBS containing 1 mM calcium chloride and 1 mM magnesium chloride and the plates were read using a Millipore Cytofluor 2300 (Marlboro, Mass.). Fluorescence in each well was measured as Arbitrary Fluorescence Units and percent adhesion in the absence of compound was adjusted to 100% and the % adhesion in the presence of compound was calculated. Monolayers were also fixed in 3% paraformaldehyde and evaluated microscopically to verify the adhesion. This procedure is a modification of a previously published method (Cardarelli et al., J. Biol. Chem. 269:18668-18673 (1994)).

T1 sequence (P13612 34-1032): as the sequence (P13612 34-1032) above
T1 sequence (P05556 21-798): as the sequence (P05556 21-798) above

`CC1(C)[C@@H](C(=O)O)CC[C@@]1(C)C(=O)N[C@H](CC(=O)O)Cc1ccc(OCc2c(Cl)cccc2Cl)cc1` (relative stereo) [Example 204, [1R-[1α(S*),3α]]-β-[[(3-Carboxy-1,2,2-trimethylcyclopentyl)carbonyl]amino]-4-[(2,6-dichlorophenyl)methoxy]-benzenebutanoic acid] returned a melting point of 106 to 108 °C.
With `CC1(C)[C@@H](C(=O)N[C@@H](Cc2ccc(OCc3c(Cl)cccc3Cl)c(O)c2)C(=O)O)CC[C@@]1(C)C(=O)O` [Example 65], the IC50 in data set [1] is 0.08 to 0.5 µM; in data set [2], at most 0.8 µM.
The corresponding values for `COC(=O)[C@H](Cc1ccc(NC(=O)c2c(Cl)cc(Cl)cc2Cl)cc1)NC(=O)[C@H]1CC[C@@](C)(C(=O)O)C1(C)C` [Example 92] are at most 0.08 µM and at most 0.8 µM.
The corresponding values for `CC1(C)[C@@H](C(=O)N[C@@H](Cc2ccc(NC(=O)c3ccccc3[N+](=O)[O-])cc2)C(=O)O)CC[C@@]1(C)C(=O)O` [Example 102] are at most 0.08 µM and at most 0.8 µM.
As for `COC(=O)[C@H](Cc1ccc(NC(=O)c2cc(C(F)(F)F)ccc2C(F)(F)F)cc1)NC(=O)[C@H]1CC[C@@](C)(C(=O)O)C1(C)C` [Example 103], the 50% inhibitory concentration (IC50) was at most 0.08 µM in data set [1] and at most 0.8 µM in data set [2].
On to `CC1(C)[C@@H](C(=O)N[C@@H](Cc2ccc(C(=O)Nc3c(Cl)cccc3Cl)cc2)C(=O)O)CC[C@@]1(C)C(=O)O` [Example 153], for which the IC50 in data set [1] fell in the range of 0.08 to 0.5 µM; in data set [2], 0.8 to 5 µM.
As for `CC1(C)[C@@H](C(=O)N[C@@H](Cc2ccc(NC(=O)c3c(Cl)cccc3Cl)cc2)C(=O)O)CC[C@@]1(C)/C=C/C(=O)O` [Example 182, [1S-[1α,3α(E)]]-N-[[3-(2-Carboxyethenyl)-2,2,3-trimethylcyclopentyl]carbonyl]-4-[(2,6-dichlorobenzoyl)amino]-L-phenylalanine disodium salt], the IC50 was at most 0.08 µM in data set [1] and at most 0.8 µM in data set [2].
As to `CC1(C)[C@@H](C(=O)O)CC[C@@]1(C)C(=O)N[C@@H](Cc1ccc(OCc2c(Cl)cccc2Cl)cc1)C(=O)O` [Example 186, (1R-cis)-N-[(3-Carboxy-1,2,2-trimethylcyclopentyl)carbonyl]-O-[(2,6-dichlorophenyl)methyl]-L-tyrosine], the IC50 is 0.08 to 0.5 µM in data set [1] and 0.8 to 5 µM in data set [2].
The corresponding values for `CC1(C)[C@@H](C(=O)N[C@@H](Cc2ccc(OCc3c(Cl)cccc3Cl)cc2)C(=O)O)CC[C@@]1(C)C(=O)NCC(N)=O` [Example 187, (1S-cis)-N-[[3-[[(2-amino-2-oxoethyl)-amino]carbonyl]-2,2,3-trimethylcyclopentyl]carbonyl]-O-[(2,6-dichlorophenyl)methyl]-L-tyrosine] are 0.08 to 0.5 µM and 0.8 to 5 µM.
The corresponding values for `CC1(C)[C@@H](C(=O)N[C@@H](Cc2ccc(NC(=O)c3c(Cl)cccc3Cl)cc2)C(=O)O)CC[C@@]1(C)C(=O)NCCC(=O)O` [Example 214] are at most 0.08 µM and at most 0.8 µM.
In the same order, the values of `CC1(C)[C@@H](C(=O)N[C@@H](Cc2ccc(NC(=O)c3c(Cl)cccc3Cl)cc2)C(=O)O)CC[C@@]1(C)C(=O)NCCC#N` [Example 216, (1S-cis)-N-[[3-[[(2-Cyanoethyl)amino]carbonyl]-2,2,3-trimethylcyclopentyl]carbonyl]-4-[(2,6-dichlorobenzoyl)amino]-L-phenylalanine] are at most 0.08 µM and at most 0.8 µM.
For the molecule `CC1(C)[C@@H](C(=O)N[C@@H](Cc2ccc(NC(=O)c3c(Cl)cccc3Cl)cc2)C(=O)O)CC[C@@]1(C)C(=O)NO` [Example 219, (1S-cis)-4-[(2,6-Dichlorobenzoyl)amino]-N-[[3-[(hydroxyamino)carbonyl]-2,2,3-trimethyl-cyclopentyl]carbonyl]-L-phenylalanine], the IC50 was at most 0.08 µM in data set [1] and at most 0.8 µM in data set [2].
In the same order, the values of `CC1(C)[C@@H](C(=O)N[C@@H](Cc2ccc(C(=O)Nc3ccc(-c4ccccc4)cc3)cc2)C(=O)O)CC[C@@]1(C)C(=O)O` [Example 220] are 0.08 to 0.5 µM and 0.8 to 5 µM.
In the same order, the values of `CC1(C)[C@@H](C(=O)N[C@@H](Cc2ccc(C(=O)Nc3ccc(Cl)cc3)cc2)C(=O)O)CC[C@@]1(C)C(=O)O` [Example 221] are 0.5 to 1 µM and 5 to 10 µM.
The corresponding values for `CC1(C)[C@@H](C(=O)N[C@@H](Cc2ccc(C(=O)Nc3ccccc3C(F)(F)F)cc2)C(=O)O)CC[C@@]1(C)C(=O)O` [Example 222] are 0.08 to 0.5 µM and at most 0.8 µM.
With `CC1(C)[C@@H](C(=O)N[C@@H](Cc2ccc(C(=O)Nc3c(Cl)cc(Cl)cc3Cl)cc2)C(=O)O)CC[C@@]1(C)C(=O)O` [Example 223], the figures for the IC50 in data set [1] and in data set [2] were at most 0.08 µM and at most 0.8 µM, respectively.
In the same order, the values of `CC1(C)[C@@H](C(=O)N[C@@H](Cc2ccc(NC(=O)c3c(Cl)cccc3Cl)cc2)C(=O)O)CC[C@@]1(C)C(=O)N1CCOCC1` [Example 225, (1S-cis)-4-[(2,6-Dichlorobenzoyl)amino]-N-[[2,2,3-trimethyl-3-[(4-morpholinyl)carbonyl]-cyclopentyl]carbonyl]-L-phenylalanine] are at most 0.08 µM and at most 0.8 µM.
The corresponding values for `COC(=O)[C@H](Cc1ccc(NC(=O)c2cc(C(F)(F)F)ccc2Cl)cc1)NC(=O)[C@H]1CC[C@@](C)(C(=O)O)C1(C)C` [Example 231, (1S-cis)-N-[(3-Carboxy-2,2,3-trimethyl-cyclopentyl)carbonyl]-4-[(2-chloro-5-trifluoromethylbenzoyl)amino]-L-phenylalanine methyl ester] are 0.5 to 1 µM and at most 0.8 µM.
The corresponding values for `CC1(C)[C@@H](C(=O)N[C@@H](Cc2ccc(NC(=O)c3cc(C(F)(F)F)ccc3Cl)cc2)C(=O)O)CC[C@@]1(C)C(=O)O` [Example 232, (1S-cis)-N-[(3-Carboxy-2,2,3-trimethyl-cyclopentyl)carbonyl]-4-[(2-chloro-5-trifluoromethylbenzoyl)amino]-L-phenylalanine] are at most 0.08 µM and at most 0.8 µM.
`CC(C)(C)c1ccc(C(=O)Nc2ccc(C[C@H](NC(=O)[C@H]3CC[C@@](C)(C(=O)O)C3(C)C)C(=O)O)cc2)c(Cl)c1` [Example 253, (1S-cis)-N-[(3-Carboxy-2,2,3-trimethylcyclopentyl)carbonyl]-4-[[2-chloro-4-[(1,1-dimethyl)ethyl]benzoyl]amino]-L-phenylalanine]: the half-inhibitory concentration (IC50) in data set [1] lay within 0.08 to 0.5 µM; in data set [2] it was 0.8 to 5 µM.

These data come from patent US6482849B1, “Inhibitors of α4β1 mediated cell adhesion” (Tanabe Seiyaku Co., Ltd., priority 1997, dated 2002).
